Measured values: paper PMC3912631, “Bench to Bed Evidences for Pharmacokinetic and Pharmacodynamic Interactions Involving Oseltamivir and Chinese Medicine” (Evidence-based Complementary and Alternative Medicine : eCAM, 2014)

Columns and labels:
[1] = Rat pharmacokinetics of OA and OC in plasma and urine after oral OA alone or with CMF1; assay type: in vivo, Sprague-Dawley rats; details: in vivo, po, 30 mg/kg
Method: The study was approved by the Animal Ethics Committee of The Chinese University of Hong Kong. Male Sprague-Dawley rats (230–250 g) were utilized and supplied by the Laboratory Animal Service Center at The Chinese University of Hong Kong. The rats were housed under standard conditions of temperature, humidity, and light and randomly divided into six groups with 10–12 rats in each group. […] The dose of 1.95 g/kg CMF1 is calculated based on the human dose recommended by the Chinese physicians and a doubled dose of CMF1 at […] is also used in the current study due to the potential large dosing range for Chinese medicine adopted in the practice. […]
For dosing, OA (4 mg/mL) was freshly prepared by dissolving it in water and orally given to rats by gavage, bid (twice daily) for 4 days (9:00am and 6:00pm for each day), and CMF1 was also freshly suspended in water and then orally given to rats 2 h later of OA dosing (11:00 am and 8:00 pm for each day).
For Groups of 1 to 3, a surgery for jugular vein cannulation was performed 1 h after CMF1 second dosing on day 4. A polyethylene catheter (0.50 mm ID, 1.00 mm OD, Portex Limited, Hythe, Kent, England) was cannulated into the right jugular vein under anesthesia. After surgery, the rat was placed in separated metabolic cage and allowed to recover and fasted overnight with free access to water. In the morning of day 5, blood samples (0.2 mL each) of the rats in the Groups 1–3 were collected via the catheter at 0, 15, 30, 60, 90, 120, 180, 240, 360, and 480 min after dosing of OA. After which, 0.2 mL of normal saline containing 20 units/mL of heparin was then injected into the catheter to flush the catheter. The collected blood samples were immediately placed in heparinized tubes containing dichlorvos (5 μL of 8 mg/mL dichlorvos in normal saline) for inhibition of carboxylesterase, followed by centrifugation to obtain the plasma and stored at −80°C. Urine samples were collected over 8 h postdose and combined with water used for rinsing the metabolic cage, further diluted to 200 mL, and then stored at −80°C until assay.
The rat/human plasma and urine samples were treated and analyzed by an LC/MS/MS system as previously described. Briefly, 200 μL plasma/urine samples was mixed with cephalexin hydrate (internal standard, IS) working solution (final 2 μg/mL) and acidified with 1 mL of 10% perchloric acid in water (if necessary, dilution with blank human urine was required for urine samples). After mixing and centrifugation, the supernatant was loaded in prewashed Oasis MCX cartridge (1 cc, 30 mg, Waters) and the cartridge was rinsed subsequently with 1% formic acid, water, and methanol followed by vacuum dried for 20 min. The analytes were then eluted with 1 mL of 1% ammonia in methanol. The eluting solvent was dried by a vacuum concentrator and the residue was reconstituted with 200 μL of 0.1% formic acid : methanol (1 : 1 v/v) prior to HPLC/MS/MS analysis using an ABI 2000 Q-Trap triple quadrupole mass spectrometer (Applied Biosystems) coupled with PE-200 series micropumps and autosampler (Perkin-Elmer). The chromatographic separation was achieved by using a Nova-Pak CN HP column (75 × 3.9 mm i.d., 4 μm particle size, Waters) and the HPLC solvent system consisted of methanol (A) and 0.1% formic acid in water (B), with 50% A (for plasma samples) or 60% A (for urine samples) at 1 mL/min. The temperatures of autosampler and the analytical column were set at 4°C and ambient, respectively, and the sample injection volume was 20 μL. Prior to the mass spectrometric system, 60% of the LC eluent was split off and only 40% of the eluent was introduced into the ESI source.
The plasma/urine OA and OC concentrations versus time profiles were analyzed using WinNonlin software standard edition version 2.1 (Pharsight Corporation). […] In human study, trough concentration (C trough) was defined as the minimum concentration obtained and was obtained at 12 h post-dose. […]

[2] = Human crossover pharmacokinetic interaction study of WM (Tamiflu) alone or with CMF1; assay type: in vivo, human (Chinese male healthy volunteers); details: for AUC(0-t): AUC0–12 h; for Cmax: C max
Method: Normal healthy Chinese male subjects aged 20–45 years were recruited in this study. […] The study was conducted using a single-center, randomized, open-labeled, multiple dose (5 days), two-treatment, two-period, two-sequence crossover design. […] Each subject underwent two treatment sessions (periods I and II), and each session consists of 5-day treatment (twice daily for day 1 to day 4, morning dose for day 5). The two treatment sessions were separated by a washout period of 2 weeks. 250 mL water was used for WM (Tamiflu capsule, 75 mg per dose) administration. […] Drinking water was not allowed from 1 h predose to 1 h postdose except that needed for drug dosing. […] All blood and urine collection was taken on day 5 of each treatment session. […] Blood samples were collected from a catheter, which was placed in the forearm vein before dosing. At the specified time, 5 mL of blood was drawn (except for 0 time and at 2 h which was 10 mL each for additional antiviral activity determination) and stored in vacuette lithium heparin tubes (Greiner Bio-One). […] Plasma samples were collected after centrifugation and then stored at −80°C until assay. Urine was also collected (and the volume was recorded) at pre-dose, 0–4, 4–8, and 8–12 h intervals. […] After mixing and centrifugation, the supernatant was loaded in prewashed Oasis MCX cartridge (1 cc, 30 mg, Waters) and the cartridge was rinsed subsequently with 1% formic acid, water, and methanol followed by vacuum dried for 20 min. The analytes were then eluted with 1 mL of 1% ammonia in methanol. The eluting solvent was dried by a vacuum concentrator and the residue was reconstituted with 200 μL of 0.1% formic acid : methanol (1 : 1 v/v) prior to HPLC/MS/MS analysis using an ABI 2000 Q-Trap triple quadrupole mass spectrometer (Applied Biosystems) coupled with PE-200 series micropumps and autosampler (Perkin-Elmer). […] In human study, trough concentration (C trough) was defined as the minimum concentration obtained and was obtained at 12 h post-dose. […] In human studies, the comparison of WM + CMF1 to WM alone treatments was evaluated using a 90% confidence intervals (90% CI) approach (USFDA guideline, Drug Interactions Studies, September 2006). […] The statistical model included terms describing the effects attributable to sequence, subject (nested in sequence), period, and treatment (formulation). […] Difference in the median T max between both treatments was evaluated using Wilcoxon signed-rank test. For comparison of the human antiviral activities, one-way analysis of variance in conjunction with post hoc Turkey's range test was performed.

[3] = male, human, in vivo, geometric mean

Q: Which “AUC0–8 h” value [1] does the source give for `CCOC(=O)C1=C[C@@H](OC(CC)CC)[C@H](NC(C)=O)[C@@H](N)C1` [OA, Oseltamivir] here?
A: The value was 199.85 ± 56.88 μg∗min/mL.

Q: What about the “AUC0–inf” value [1] of the same compound?
A: The value was 209.14 ± 60.23 μg∗min/mL.

Q: And the “V d, λz/F” value [1]?
A: The value was 23.39 ± 8.17 (L/k)g.

Q: What about the Cmax ([1]; male, Sprague-Dawley, C max) of the same compound?
A: The Cmax was 1160 ± 300 ng/mL.

Q: What about the CL renal ([1]; male, Sprague-Dawley, CL renal) of the same compound?
A: The CL renal was 6.1 ± 1.32 mL/min.

Q: And the CL/F ([1]; male, Sprague-Dawley, CL/F)?
A: Its CL/F is 158 ± 59.6 mL/min/kg.

Q: What about the Tmax ([1]; male, Sprague-Dawley, T max) of the same compound?
A: The Tmax was 0.55 h.

Q: And the half-life ([1]; male, Sprague-Dawley, t 1/2, λz)?
A: Its half-life is 1.72 ± 0.146 h.

Q: What about the C max ([2]; human, day 5, WM + CMF1, n = 14, arithmetic mean ± SD) of the same compound?
A: The C max was 51.3 ± 17.4 ng/mL.

Q: And the tolerability ([2]; in vivo)?
A: The tolerability was “well tolerated”.

Q: What about the “12 h Cum. amt. in urine” value ([2]; male, human, in vivo) of the same compound?
A: The value was 2883 ± 985 µg.

Q: What about the “12 h Cum. amt. in urine, geometric mean” value ([2]; male, human, in vivo) of the same compound?
A: Its value is 2745.53 µg.

Q: And the “C max for WM + CMF1 treatment lower than that from WM alone” value ([2]; male, human, in vivo)?
A: The value was 21.81%.

Q: And the “C max when OA was co-administered with CMF1, relative to WM alone” value ([2]; male, human, in vivo)?
A: Its value is ~ 78%.

Q: What about the “time to reach peak maximum in plasma” value ([2]; male, human, in vivo) of the same compound?
A: The value was 0.5 to 1 h.

Q: What about the AUC(0-t) ([2]; male, human, in vivo) of the same compound?
A: Its AUC(0-t) is 134 ± 41.1 ng·h/mL.

Q: What about the AUC(0-t) [2, 3] of the same compound?
A: Its AUC(0-t) is 130 ng·h/mL.

Q: What about the Cmax ([2]; male, human, in vivo) of the same compound?
A: The Cmax was 67.9 ± 27.1 ng/mL.

Q: And the Cmax [2, 3]?
A: Its Cmax is 62.4 ng/mL.

Q: What about the CL renal ([2]; male, human, in vivo, Renal clearance) of the same compound?
A: Its CL renal is 368 mL/min.

Q: And the half-life ([2]; male, human, in vivo, T 1/2 (terminal half-life))?
A: The half-life was 1.98 ± 0.4 h.

Q: What about the Tmax ([2]; male, human, in vivo, T max) of the same compound?
A: The Tmax was 0.61 ± 0.21 h.

Q: And the CL renal ([2]; male, human, in vivo, renal clearance)?
A: Its CL renal is roughly 367 mL/min.
